Consider five molecules from paper PMC5656596, “Yucasin DF, a potent and persistent inhibitor of auxin biosynthesis in plants” (Scientific Reports, 2017).

In experiment [1] the target is T1, AtYUC6 (YUC6) (Arabidopsis thaliana, UniProt Q8VZ59).
T1 construct: purified recombinant
T1 sequence (Q8VZ59 1-417): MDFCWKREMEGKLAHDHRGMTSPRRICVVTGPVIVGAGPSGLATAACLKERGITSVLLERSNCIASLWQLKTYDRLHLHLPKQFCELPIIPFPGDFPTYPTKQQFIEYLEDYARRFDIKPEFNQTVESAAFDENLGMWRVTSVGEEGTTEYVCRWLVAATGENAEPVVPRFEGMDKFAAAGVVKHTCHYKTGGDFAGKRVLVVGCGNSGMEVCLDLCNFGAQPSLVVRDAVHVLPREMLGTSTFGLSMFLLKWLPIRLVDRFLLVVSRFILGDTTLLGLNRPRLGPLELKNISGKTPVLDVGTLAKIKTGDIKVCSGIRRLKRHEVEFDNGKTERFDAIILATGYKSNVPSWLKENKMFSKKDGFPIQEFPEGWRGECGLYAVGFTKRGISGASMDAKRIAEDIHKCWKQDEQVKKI
In words: competition with photoaffinity probe labelling. The class given is binding. The settings on record: active site.

Experiment [2] concerns the target T2, AtYUC1 (AtYUC1-His, YUC1) (Arabidopsis thaliana, UniProt Q9SZY8).
T2 construct: recombinant His-tagged, pET-53-DEST, E. coli BL21 Star (DE3), TALON purified, tag kept
T2 sequence (Q9SZY8 1-414): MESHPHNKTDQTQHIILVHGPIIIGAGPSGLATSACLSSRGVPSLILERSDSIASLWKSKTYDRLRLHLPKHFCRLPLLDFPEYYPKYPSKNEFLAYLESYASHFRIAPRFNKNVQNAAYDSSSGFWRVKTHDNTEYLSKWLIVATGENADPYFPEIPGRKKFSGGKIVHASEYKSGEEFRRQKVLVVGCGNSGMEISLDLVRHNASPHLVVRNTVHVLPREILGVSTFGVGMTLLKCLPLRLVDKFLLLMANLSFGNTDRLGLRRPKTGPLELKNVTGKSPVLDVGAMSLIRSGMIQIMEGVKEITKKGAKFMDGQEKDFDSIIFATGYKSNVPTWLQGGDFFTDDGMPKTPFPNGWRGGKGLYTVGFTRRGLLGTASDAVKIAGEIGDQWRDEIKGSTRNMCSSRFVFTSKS
As to the kind of experiment: LC-MS/MS of IAA formed from IPA. The class given is biochemical. Particulars: 20 µM IPA, 40 µM FAD, 1 mM NADPH, 10 mM Tris-HCl pH 7.5, 35 °C, 30 min.

The target of experiment [3] is T1, AtYUC6 (YUC6). In words: photoaffinity labelling, Staudinger-Bertozzi ligation to fluorescent phosphine, SDS-PAGE. The class given is binding. The settings on record: 20 µM probe, 254 nm UV, on ice, 10 mM phosphate buffer; active site, competitive with IPA and PPA; covalent; labelled compound.

Consider `O=C(O)C(=O)Cc1c[nH]c2ccccc12` [IPA], for which, on AtYUC6 (YUC6) [1] (200 µM IPA against 20 µM probe), the “competition with photoaffinity probe labelling” value is listed as “The fluorescent signal disappeared when the probe was photoactivated in the presence of the substrates”.

For `O=C(O)C(=O)Cc1ccccc1` [PPA], the “competition with photoaffinity probe labelling” value on AtYUC6 (YUC6) [1] (200 µM PPA against 20 µM probe) is “The fluorescent signal disappeared when the probe was photoactivated in the presence of the substrates”.

With `Fc1cccc(F)c1-c1n[nH]c(=S)[nH]1` [compound 1, 5-[2,6-difluorophenyl]-2,4-dihydro-[1,2,4]-triazole-3-thione], the “enzyme activity at 1 or 10 μM inhibitor” value in experiment [2] is recorded as “we measured the inhibitory activity of YDF on the recombinant AtYUC1 enzyme”.

For `[N-]=[N+]=NCc1cc(N=[N+]=[N-])cc(-c2n[nH]c(=S)[nH]2)c1` [photoaffinity yucasin probe], the “photoaffinity labelling, Staudinger-Bertozzi ligation to fluorescent phosphine,” value at AtYUC6 (YUC6) [3] is “A fluorescent signal from the photoaffinity-labeled probe of YUC6 was detected”.

For `S=c1[nH]nc(-c2ccc(Cl)cc2)[nH]1` [yucasin, 5-[4-chlorophenyl]-2,4-dihydro-[1,2,4]-triazole-3-thione], in experiment [2], the “enzyme activity at 1 or 10 μM inhibitor” value was “Yucasin inhibited the recombinant YUC1 enzyme activity more potent than YDF”.
